The target in assay [1] is HPK1 (Homo sapiens, UniProt Q92918). The assay is described as follows: HPK1 Biochemical Assay (ADP-Glo luminescence; low ATP 10 μM or high ATP 200 μM). Particulars: 2 nM HPK1, 10 μM ATP; read-out: Biochemical Potency (low ATP). In general terms: ADP-Glo turns the ADP formed in a reaction into a luminescent signal.
The test system of assay [2] is p-SLP-76 (Ser376) in Jurkat cells. The assay is described as follows: pSLP76 Cellular Assay (AlphaLISA SureFire Ultra p-SLP-76 (Ser376), anti-CD3 activated Jurkat cells). Particulars: Homo sapiens, read-out: Cellular Potency. The assay is classed as cell-based. On the procedure: pSLP76 cellular assay was performed using Jurkat cells and the AlphaLISA SureFire Ultra p-SLP-76 (Ser376) Assay Kit (PerkinElmer). Dose-response assays were performed in Greiner® Low Volume 384-well assay plates containing 200 nL of 22 serial 2-fold compound dilutions using Bravo and Echo. Jurkat cells were grown in RPMI-1640 supplemented with 10% FBS and PSG. The day prior to the assay, the cells were collected, and serum starved overnight in Opti-MEM. The day of the assay, the cells were collected and resuspended in HBSS. 100,000 cells/well were added to the compound plates and after a short spin, the plates were incubated at 37° C. for 1 h. The cells were activated by adding 10 μL of 0.025 mg/ml anti-CD3. Plates were then incubated at 37° C. for 45 min. Stimulation was terminated by adding […], followed by a brief centrifugation and 60 min of shaking at 300 rpm. Cell lysates (10 μL) were transferred to 384-well White Opti-plates and the samples were processed according to the manufacturer's directions. The fluorescence signal from pSLP76 was measured at 570 nm using Envision plate reader. IC50 values were determined by fitting the data to a standard 4-parameter logistic equation. The results are summarized in the Cellular Potency columns in Tables 4 and 5 below (Cellular Potency).
In general terms: Bead proximity is the source of the signal in Alpha formats.

[3] abbreviates: Jurkat cells, anti-CD3 stimulation, pSLP76.

The source of these data is patent publication US12649751B2 (Arcus Biosciences, Inc., priority 2022, dated 2026).

Read-outs that look alike come from different tables or passages of the source.

Chain of HPK1 (Q92918 whole entry, species assumed): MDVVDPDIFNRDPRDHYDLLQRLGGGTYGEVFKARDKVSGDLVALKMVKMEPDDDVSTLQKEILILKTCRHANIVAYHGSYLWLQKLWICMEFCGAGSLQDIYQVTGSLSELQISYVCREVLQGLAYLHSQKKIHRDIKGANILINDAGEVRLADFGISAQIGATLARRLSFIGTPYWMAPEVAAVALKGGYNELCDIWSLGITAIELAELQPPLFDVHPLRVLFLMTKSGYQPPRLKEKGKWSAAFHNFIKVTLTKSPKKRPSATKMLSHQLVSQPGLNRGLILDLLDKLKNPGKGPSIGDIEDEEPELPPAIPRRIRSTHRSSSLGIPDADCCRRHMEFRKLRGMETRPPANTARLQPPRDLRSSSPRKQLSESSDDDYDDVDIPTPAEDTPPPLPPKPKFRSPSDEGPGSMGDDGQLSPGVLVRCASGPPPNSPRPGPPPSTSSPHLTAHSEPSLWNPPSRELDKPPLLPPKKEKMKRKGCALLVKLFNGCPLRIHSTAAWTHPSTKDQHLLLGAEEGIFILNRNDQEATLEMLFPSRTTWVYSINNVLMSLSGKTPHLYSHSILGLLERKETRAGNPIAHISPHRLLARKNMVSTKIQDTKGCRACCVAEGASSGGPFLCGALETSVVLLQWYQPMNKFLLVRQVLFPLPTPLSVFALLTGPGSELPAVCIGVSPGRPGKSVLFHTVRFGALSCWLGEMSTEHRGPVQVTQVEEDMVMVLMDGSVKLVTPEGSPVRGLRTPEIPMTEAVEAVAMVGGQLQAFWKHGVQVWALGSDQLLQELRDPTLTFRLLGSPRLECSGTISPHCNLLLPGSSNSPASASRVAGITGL

Take `Cc1cccnc1-c1nc2cc(Nc3ccc([C@H]4CCOC4)c(CN4CCCC4)n3)ncc2s1` (single isomer, unassigned) [Example 258, N-[2-(3-Methylpyridin-2-yl)-[1,3]thiazolo[5,4-c]pyridin-6-yl]-5-[(3R or 3S)-oxolan-3-yl]-6-[(pyrrolidin-1-yl)methyl]pyridin-2-amine]: the values for the IC50 in assay [1] and in assay [2] (setting [3]) were < 100 nM and 100 to 1000 nM, respectively.

Regarding `Cc1cccnc1-c1nc2cc(Nc3ccc([C@@H]4CCOC4)c(CN4CCCC4)n3)ncc2s1` (single isomer, unassigned) [Example 259, N-[2-(3-Methylpyridin-2-yl)-[1,3]thiazolo[5,4-c]pyridin-6-yl]-5-[(3R or 3S)-oxolan-3-yl]-6-[(pyrrolidin-1-yl)methyl]pyridin-2-amine], the figures for the IC50 in assay [1] and in assay [2] (setting [3]) were < 100 nM and 100 to 1000 nM, respectively.

Turning to `c1cncc(-c2nc3cc(Nc4ccc([C@H]5CCOC5)c(CN5CCCC5)n4)ncc3s2)c1` (single isomer, unassigned) [Example 260, 5-[(3R or 3S)—Oxolan-3-yl]-N-[2-(pyridin-3-yl)-[1,3]thiazolo[5,4-c]pyridin-6-yl]-6-[(pyrrolidin-1-yl)methyl]pyridin-2-amine], the IC50 was < 100 nM in assay [1] and 100 to 1000 nM in assay [2] (setting [3]).

For the compound `c1cncc(-c2nc3cc(Nc4ccc([C@@H]5CCOC5)c(CN5CCCC5)n4)ncc3s2)c1` (single isomer, unassigned) [Example 261, 5-[(3R or 3S)—Oxolan-3-yl]-N-[2-(pyridin-3-yl)-[1,3]thiazolo[5,4-c]pyridin-6-yl]-6-[(pyrrolidin-1-yl)methyl]pyridin-2-amine], the IC50 in assay [1] was < 100 nM; in assay [2] (setting [3]), 100 to 1000 nM.

For `CN(C)Cc1nc(Nc2cc3nc(-c4c(F)cccc4F)sc3cn2)ccc1N1CCOCC1` [Example 1, N-[2-(2,6-Difluorophenyl)-[1,3]thiazolo[5,4-c]pyridin-6-yl]-6-[(dimethylamino)methyl]-5-(morpholin-4-yl)pyridin-2-amine], the results for the IC50 in assay [1] and in assay [2] (Jurkat) were < 100 nM and > 5000 nM, respectively.

Consider `Cc1ccncc1-c1nc2cc(Nc3ccc(N4CCOCC4)c(CN(C)C)n3)ncc2s1` [Example 3, 6-[(Dimethylamino)methyl]-N-[2-(4-methylpyridin-3-yl)-[1,3]thiazolo[5,4-c]pyridin-6-yl]-5-(morpholin-4-yl)pyridin-2-amine], for which the values for the IC50 in assay [1] and in assay [2] (setting [3]) were < 100 nM and 100 to 1000 nM, respectively.

Take `CN(C)Cc1nc(Nc2cc3nc(-c4ccncc4F)sc3cn2)ccc1N1CCOCC1` [Example 4, 6-[(Dimethylamino)methyl]-N-[2-(3-fluoropyridin-4-yl)-[1,3]thiazolo[5,4-c]pyridin-6-yl]-5-(morpholin-4-yl)pyridin-2-amine]: the IC50 in assay [1] is < 100 nM; in assay [2] (setting [3]), 100 to 1000 nM.

For `CN(C)Cc1nc(Nc2cc3nc(-c4ccncc4)sc3cn2)ccc1N1CCOCC1` [Example 5, 6-[(Dimethylamino)methyl]-5-(morpholin-4-yl)-N-[2-(pyridin-4-yl)-[1,3]thiazolo[5,4-c]pyridin-6-yl]pyridin-2-amine], the IC50 in assay [1] and in assay [2] (setting [3]) was < 100 nM in each case.

`CN(C)Cc1nc(Nc2cc3nc(-c4cccnc4)sc3cn2)ccc1N1CCOCC1` [Example 6, 6-[(Dimethylamino)methyl]-5-(morpholin-4-yl)-N-[2-(pyridin-3-yl)-[1,3]thiazolo[5,4-c]pyridin-6-yl]pyridin-2-amine]: the IC50 was < 100 nM in assay [1] and 100 to 1000 nM in assay [2] (setting [3]).

For `c1ccc(-c2nc3cc(Nc4ccc(N5CCOCC5)c(CN5CCCC5)n4)ncc3s2)nc1` [Example 7, 5-(Morpholin-4-yl)-N-[2-(pyridin-2-yl)-[1,3]thiazolo[5,4-c]pyridin-6-yl]-6-[(pyrrolidin-1-yl)methyl]pyridin-2-amine], the IC50 in assay [1] was < 100 nM; in assay [2] (setting [3]) it was 1000 to 5000 nM.

Turning to `Cc1cccnc1-c1nc2cc(Nc3ccc(N4CCC(F)(F)C4)c(CN4CCCC4)n3)ncc2s1` [Example 9, 5-(3,3-Difluoropyrrolidin-1-yl)-N-[2-(3-methylpyridin-2-yl)-[1,3]thiazolo[5,4-c]pyridin-6-yl]-6-[(pyrrolidin-1-yl)methyl]pyridin-2-amine], the figures for the IC50 in assay [1] and in assay [2] (setting [3]) were < 100 nM and 100 to 1000 nM, respectively.

As for `CN(C)Cc1nc(Nc2cc3nc(-c4c(F)cccc4F)sc3cn2)ccc1N1CCC(O)CC1` [Example 12, 1-(6-{[2-(2,6-Difluorophenyl)-[1,3]thiazolo[5,4-c]pyridin-6-yl]amino}-2-[(dimethylamino)methyl]pyridin-3-yl)piperidin-4-ol], the figures for the IC50 in assay [1] and in assay [2] (setting [3]) were < 100 nM and 1000 to 5000 nM, respectively.

For `Cc1cccc(C)c1-c1nc2cc(Nc3ccc(N4CCOCC4)c(CN(C)C)n3)ncc2s1` [Example 13, 6-[(Dimethylamino)methyl]-N-[2-(2,6-dimethylphenyl)-[1,3]thiazolo[5,4-c]pyridin-6-yl]-5-(morpholin-4-yl)pyridin-2-amine], the figures for the IC50 in assay [1] and in assay [2] (setting [3]) were < 100 nM and 100 to 1000 nM, respectively.

For the compound `Cc1cccc(F)c1-c1nc2cc(Nc3ccc(N4CCOCC4)c(CN(C)C)n3)ncc2s1` [Example 14, 6-[(Dimethylamino)methyl]-N-[2-(2-fluoro-6-methylphenyl)-[1,3]thiazolo[5,4-c]pyridin-6-yl]-5-(morpholin-4-yl)pyridin-2-amine], the values for the IC50 in assay [1] and in assay [2] (setting [3]) were < 100 nM and 100 to 1000 nM, respectively.

Take `CN(C)Cc1nc(Nc2cc3nc(-c4c(F)cccc4C(F)(F)F)sc3cn2)ccc1N1CCOCC1` [Example 15, 6-[(Dimethylamino)methyl]-N-{2-[2-fluoro-6-(trifluoromethyl)phenyl]-[1,3]thiazolo[5,4-c]pyridin-6-yl}-5-(morpholin-4-yl)pyridin-2-amine]: the figures for the IC50 in assay [1] and in assay [2] (setting [3]) were < 100 nM and 100 to 1000 nM, respectively.

Regarding `Cc1cccc(F)c1-c1nc2cc(Nc3ccc(N4CCOCC4)c(CN4CCCC4)n3)ncc2s1` [Example 16, N-[2-(2-Fluoro-6-methylphenyl)-[1,3]thiazolo[5,4-c]pyridin-6-yl]-5-(morpholin-4-yl)-6-[(pyrrolidin-1-yl)methyl]pyridin-2-amine], the values for the IC50 in assay [1] and in assay [2] (setting [3]) were < 100 nM and 1000 to 5000 nM, respectively.

Consider `Fc1cccc(F)c1-c1nc2cc(Nc3ccc(N4CCOCC4)c(CN4CCCC4)n3)ncc2s1` [Example 17, N-[2-(2,6-Difluorophenyl)-[1,3]thiazolo[5,4-c]pyridin-6-yl]-5-(morpholin-4-yl)-6-[(pyrrolidin-1-yl)methyl]pyridin-2-amine], for which the IC50 in assay [1] was < 100 nM; in assay [2] (setting [3]) it was 1000 to 5000 nM.

On to `Cc1cccc(F)c1-c1nc2cc(Nc3ccc(N4CCC(O)CC4)c(CN(C)C)n3)ncc2s1` [Example 18, 1-{2-[(Dimethylamino)methyl]-6-{[2-(2-fluoro-6-methylphenyl)-[1,3]thiazolo[5,4-c]pyridin-6-yl]amino}pyridin-3-yl}piperidin-4-ol], for which the IC50 in assay [1] was < 100 nM; in assay [2] (setting [3]), 100 to 1000 nM.

Consider `CN(C)Cc1nc(Nc2cccc(F)c2-c2nc3cc(Cl)ncc3s2)ccc1N1CCOCC1` [Example 19, N-(2-{6-Chloro-[1,3]thiazolo[5,4-c]pyridin-2-yl}-3-fluorophenyl)-6-[(dimethylamino)methyl]-5-(morpholin-4-yl)pyridin-2-amine], for which the IC50 in assay [1] and in assay [2] (setting [3]) was > 5000 nM each time.

As to `CN(C)Cc1nc(Nc2cc3nc(-c4c(F)cccc4Cl)sc3cn2)ccc1N1CCOCC1` [Example 20, N-[2-(2-Chloro-6-fluorophenyl)-[1,3]thiazolo[5,4-c]pyridin-6-yl]-6-[(dimethylamino)methyl]-5-(morpholin-4-yl)pyridin-2-amine], the IC50 in assay [1] was < 100 nM; in assay [2] (setting [3]), 100 to 1000 nM.

Take `CC(C)n1cc(-c2nc3cc(Nc4ccc(N5CCOCC5)c(CN5CCCC5)n4)ncc3s2)cn1` [Example 23, 5-(Morpholin-4-yl)-N-{2-[1-(propan-2-yl)-1H-pyrazol-4-yl]-[1,3]thiazolo[5,4-c]pyridin-6-yl}-6-[(pyrrolidin-1-yl)methyl]pyridin-2-amine]: the IC50 is < 100 nM in assay [1] and > 5000 nM in assay [2] (setting [3]).

With `Cn1cc(-c2nc3cc(Nc4ccc(N5CCOCC5)c(CN5CCCC5)n4)ncc3s2)cn1` [Example 24, N-[2-(1-Methyl-1H-pyrazol-4-yl)-[1,3]thiazolo[5,4-c]pyridin-6-yl]-5-(morpholin-4-yl)-6-[(pyrrolidin-1-yl)methyl]pyridin-2-amine], the IC50 in assay [1] is < 100 nM; in assay [2] (setting [3]) it was 100 to 1000 nM.

On to `COc1cccc(F)c1-c1nc2cc(Nc3ccc(N4CCOCC4)c(CN(C)C)n3)ncc2s1` [Example 26, 6-[(Dimethylamino)methyl]-N-[2-(2-fluoro-6-methoxyphenyl)-[1,3]thiazolo[5,4-c]pyridin-6-yl]-5-(morpholin-4-yl)pyridin-2-amine], for which the IC50 in assay [1] was < 100 nM; in assay [2] (setting [3]) it was 100 to 1000 nM.

As for `Cc1c(-c2nc3cc(Nc4ccc(N5CCOCC5)c(CN5CCCC5)n4)ncc3s2)cnc2c1NCCO2` [Example 27, N-(2-{8-Methyl-1H,2H,3H-pyrido[2,3-b][1,4]oxazin-7-yl}-[1,3]thiazolo[5,4-c]pyridin-6-yl)-5-(morpholin-4-yl)-6-[(pyrrolidin-1-yl)methyl]pyridin-2-amine], the figures for the IC50 in assay [1] and in assay [2] (setting [3]) were < 100 nM and 100 to 1000 nM, respectively.
